# Tested on: γ-secretase
# Test: Screening for γ-secretase-modulating activity, Aβ 42 in SKNBE2 cells carrying APP 695-wild type
# Assay type: cell-based
# Settings: at 3 μM
# Experimental: Screening of the Compounds of the Invention for γ-Secretase-Modulating Activity
# Screening was carried out using SKNBE2 cells carrying the APP 695-wild type, grown in DMEM/NUT-mix F12 (HAM) provided by Gibco (cat no. 31330-38) containing 5% Serum/Fe supplemented with 1% non-essential amino acids.
# Cells were grown to near confluency.
# The screening was performed using the assay as described in Citron et al (1997) Nature Medicine 3: 67.
# IC50-Values of Selected Compounds of the Invention on the γ-Secretase Activity.
row,Compound,WTAPP SKNBE2 Aβ 42 % Inhibition at 3 μM
1,"CC(C)CC(C(=O)O)c1cc(Nc2cc(F)cc(F)c2)cc(-c2ccc(C(F)(F)F)cc2)c1 (stereo not drawn) [Compound 1, 2-[5-(3,5-Difluoro-phenylamino)-4′-trifluoromethyl-biphenyl-3-yl]-4-methyl-pentanoic acid]",73%
2,"CC(C)CC(C(=O)O)c1cc(Nc2ccc(F)cc2F)cc(-c2ccc(C(F)(F)F)cc2)c1 (stereo not drawn) [Compound 2, 2-[5-(2,4-Difluoro-phenylamino)-4′-trifluoromethyl-biphenyl-3-yl]-4-methyl-pentanoic acid]",62%
3,"CC(C)CC(C(=O)O)c1cc(Nc2ccc(Cl)cc2)cc(-c2ccc(C(F)(F)F)cc2)c1 (stereo not drawn) [Compound 5, 2-[5-(4-Chloro-phenylamino)-4′-trifluoromethyl-biphenyl-3-yl]-4-methyl-pentanoic acid]",79%
4,"CC(C)CC(C(=O)O)c1cc(Nc2ccc(F)cc2)cc(-c2ccc(C(F)(F)F)cc2)c1 (stereo not drawn) [Compound 6, 2-[5-(4-Fluoro-phenylamino)-4′-trifluoromethyl-biphenyl-3-yl]-4-methyl-pentanoic acid]",66%
5,"CC(C)CC(C(=O)O)c1cc(Nc2ccc(Cl)c(C(F)(F)F)c2)cc(-c2ccc(C(F)(F)F)cc2)c1 (stereo not drawn) [Compound 12, 2-[5-(4-Chloro-3-trifluoromethyl-phenylamino)-4′-trifluoromethyl-biphenyl-3-yl]-4-methyl-pentanoic acid]",81%
6,"CC(C)CC(C(=O)O)c1cc(Nc2ccc(C#N)cc2)cc(-c2ccc(C(F)(F)F)cc2)c1 (stereo not drawn) [Compound 13, 2-[5-(4-Cyano-phenylamino)-4′-trifluoromethyl-biphenyl-3-yl]-4-methyl-pentanoic acid]",52%
7,"CC(C)CC(C)(C(=O)O)c1cc(Nc2ccc(C#N)cc2)cc(-c2ccc(C(F)(F)F)cc2)c1 (stereo not drawn) [Compound 14, 2-[5-(4-Cyano-phenylamino)-4′-trifluoromethyl-biphenyl-3-yl]-2,4-dimethyl-pentanoic acid]",17%
8,"CC(C)CC(C(=O)O)c1cc(Oc2cccc(C(C)C)c2)cc(-c2ccc(C(F)(F)F)cc2)c1 (stereo not drawn) [Compound 15, 2-[5-(3-Isopropyl-phenoxy)-4′-trifluoromethyl-biphenyl-3-yl]-4-methyl-pentanoic acid]",65%
9,"COc1cc(Oc2cc(-c3ccc(C(F)(F)F)cc3)cc(C(CC(C)C)C(=O)O)c2)ccc1F (stereo not drawn) [Compound 18, 2-[5-(4-Fluoro-3-methoxy-phenoxy)-4′-trifluoromethyl-biphenyl-3-yl]-4-methyl-pentanoic acid]",19%
10,"COc1ccc(Oc2cc(-c3ccc(C(F)(F)F)cc3)cc(C(CC(C)C)C(=O)O)c2)cc1C(F)(F)F (stereo not drawn) [Compound 19, 2-[5-(4-Methoxy-3-trifluoromethyl-phenoxy)-4′-trifluoromethyl-biphenyl-3-yl]-4-methyl-pentanoic acid]",22%
11,"CC(C)CC(C(=O)O)c1cc(Oc2cccc(C(F)(F)F)c2)cc(-c2ccc(Cl)c(C(F)(F)F)c2)c1 (stereo not drawn) [Compound 22, 4-Methyl-2-[4′-chloro-3′-trifluoromethyl-5-(3-trifluoromethylphenoxy)-biphenyl-3-yl]-pentanoic acid]",81%
12,"CC(C)CC(C(=O)O)c1cc(Oc2cc(F)cc(F)c2)cc(-c2ccc(Cl)c(C(F)(F)F)c2)c1 (stereo not drawn) [Compound 23, 4-Methyl-2-[4′-chloro-3′-trifluoromethyl-5-(3,5-difluorophenoxy)-biphenyl-3-yl]-pentanoic acid]",80%
13,"CC(C)CC(C(=O)O)c1cc(Oc2ccccc2)cc(-c2ccc(C(F)(F)F)cc2)c1 (stereo not drawn) [Compound 24, 4-Methyl-2-(5-phenoxy-4′-trifluoromethyl-biphenyl-3-yl)-pentanoic acid]",45%
14,"CC(C)CC(C(=O)O)c1cc(Oc2ccc(F)cc2)cc(-c2ccc(C(F)(F)F)cc2)c1 (stereo not drawn) [Compound 25, 2-[5-(4-Fluoro-phenoxy)-4′-trifluoromethyl-biphenyl-3-yl]-4-methyl-pentanoic acid]",54%

# Same assay, conditions: read-out: WTAPP SKNBE2 Aβ 42 EC50
row,Compound,EC50
1,"CC(C)CC(C(=O)O)c1cc(Nc2cc(C(F)(F)F)cc(C(F)(F)F)c2)cc(-c2ccc(C(F)(F)F)cc2)c1 (stereo not drawn) [Compound 3, 2-[5-(3,5-Bis-trifluoromethyl-phenylamino)-4′-trifluoromethyl-biphenyl-3-yl]-4-methyl-pentanoic acid]",300 nM
2,"CC(C)CC(C(=O)O)c1cc(Nc2ccc(C(C)C)cc2)cc(-c2ccc(C(F)(F)F)cc2)c1 (stereo not drawn) [Compound 4, 2-[5-(4-Isopropyl-phenylamino)-4′-trifluoromethyl-biphenyl-3-yl]-4-methyl-pentanoic acid]",290 nM
3,"CC(C)CC(C(=O)O)c1cc(Nc2cc(Cl)cc(Cl)c2)cc(-c2ccc(C(F)(F)F)cc2)c1 (stereo not drawn) [Compound 7, 2-[5-(3,5-Dichloro-phenylamino)-4′-trifluoromethyl-biphenyl-3-yl]-4-methyl-pentanoic acid]",420 nM
4,"CC(C)CC(C(=O)O)c1cc(Nc2cc(C(F)(F)F)ccc2C(F)(F)F)cc(-c2ccc(C(F)(F)F)cc2)c1 (stereo not drawn) [Compound 8, 2-[5-(2,5-Bis-trifluoromethyl-phenylamino)-4′-trifluoromethyl-biphenyl-3-yl]-4-methyl-pentanoic acid]",200 nM
5,"CC(C)CC(C(=O)O)c1cc(Nc2ccc(F)cc2C(F)(F)F)cc(-c2ccc(C(F)(F)F)cc2)c1 (stereo not drawn) [Compound 9, 2-[5-(4-Fluoro-2-trifluoromethyl-phenylamino)-4′-trifluoromethyl-biphenyl-3-yl]-4-methyl-pentanoic acid]",280 nM
6,"CC(C)CC(C(=O)O)c1cc(Nc2cccc(C(F)(F)F)c2)cc(-c2ccc(C(F)(F)F)cc2)c1 (stereo not drawn) [Compound 10, 4-Methyl-2-[4′-trifluoromethyl-5-(3-trifluoromethyl-phenylamino)-biphenyl-3-yl]-pentanoic acid]",410 nM
7,"CC(C)CC(C(=O)O)c1cc(Nc2ccc(C(F)(F)F)cc2)cc(-c2ccc(C(F)(F)F)cc2)c1 (stereo not drawn) [Compound 11, 4-Methyl-2-[4′-trifluoromethyl-5-(4-trifluoromethyl-phenylamino)-biphenyl-3-yl]-pentanoic acid]",500 nM
8,"CC(C)CC(C(=O)O)c1cc(Oc2ccc(C(F)(F)F)cc2)cc(-c2ccc(C(F)(F)F)cc2)c1 (stereo not drawn) [Compound 16, 4-Methyl-2-[4′-trifluoromethyl-5-(4-trifluoromethyl-phenoxy)-biphenyl-3-yl]-pentanoic acid]",2250 nM
9,"CC(C)CC(C(=O)O)c1cc(Oc2cc(F)c(F)c(F)c2)cc(-c2ccc(C(F)(F)F)cc2)c1 (stereo not drawn) [Compound 17, 4-Methyl-2-[4′-trifluoromethyl-5-(3,4,5-trifluoro-phenoxy)-biphenyl-3-yl]-pentanoic acid]",1850 nM
10,"CC(C)CC(C(=O)O)c1cc(Oc2cccc(C(F)(F)F)c2)cc(-c2ccc(C(F)(F)F)cc2)c1 (stereo not drawn) [Compound 20, 2 4-Methyl-2-[4′-trifluoromethyl-5-(3-trifluoromethyl-phenoxy)-biphenyl-3-yl]-pentanoic acid]",660 nM
